From patent publication US9067977B2, “Peptides derivatized with A-B-C-D- and their therapeutical use” (Novo Nordisk A/S, priority 2007, dated 2015)

How the values were obtained:
[1] = molecular target: T1, human serum albumin (HSA) (Homo sapiens, UniProt P02768); assay: in vitro; conditions: pH 7.4
Protocol: (§1) Streptavidin-SPA beads (GE Healthcare RPNQ0009) were incubated with biotinylated HSA for 5 hours. The beads were washed with buffer to remove unbound HSA. […] After 20 hours of gentle rocking at room temperature the plates were centrifuged and counted on a TopCounter.

[2] = molecular target: T1, human serum albumin (HSA); assay: Albumin binding affinity, competition scintillation proximity assay
Protocol: as §1

T1 sequence (P02768 25-609): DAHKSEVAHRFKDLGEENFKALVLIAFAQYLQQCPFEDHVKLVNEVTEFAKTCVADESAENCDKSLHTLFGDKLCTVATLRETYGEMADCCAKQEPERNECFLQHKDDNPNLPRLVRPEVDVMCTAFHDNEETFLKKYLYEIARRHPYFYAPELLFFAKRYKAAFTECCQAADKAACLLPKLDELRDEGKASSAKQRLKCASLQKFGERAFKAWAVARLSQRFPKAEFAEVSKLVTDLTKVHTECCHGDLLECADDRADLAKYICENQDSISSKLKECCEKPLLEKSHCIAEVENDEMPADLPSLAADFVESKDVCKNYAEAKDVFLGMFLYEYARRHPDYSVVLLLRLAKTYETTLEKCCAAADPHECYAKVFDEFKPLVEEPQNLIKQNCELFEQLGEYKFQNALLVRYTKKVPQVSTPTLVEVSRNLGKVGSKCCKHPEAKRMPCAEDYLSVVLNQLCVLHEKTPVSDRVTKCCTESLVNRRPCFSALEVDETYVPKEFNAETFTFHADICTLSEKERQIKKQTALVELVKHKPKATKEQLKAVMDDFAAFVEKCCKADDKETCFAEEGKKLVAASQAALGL

For `CC[C@H](C)[C@H](NC(=O)[C@H](Cc1ccccc1)NC(=O)[C@H](CCC(=O)O)NC(=O)[C@H](CCCCNC(=O)COCCOCCNC(=O)CC[C@H](NC(=O)CC[C@H](NC(=O)CCCCCNC(=O)CCCS(=O)(=O)NC(=O)CCCCCCCCCCCCCCCc1nnn[nH]1)C(=O)O)C(=O)O)NC(=O)[C@H](C)NC(=O)[C@H](C)NC(=O)[C@H](CCC(N)=O)NC(=O)CNC(=O)[C@H](CCC(=O)O)NC(=O)[C@H](CC(C)C)NC(=O)[C@H](Cc1ccc(O)cc1)NC(=O)[C@H](CO)NC(=O)[C@H](CO)NC(=O)[C@@H](NC(=O)[C@H](CC(=O)O)NC(=O)[C@H](CO)NC(=O)[C@@H](NC(=O)[C@H](Cc1ccccc1)NC(=O)[C@@H](NC(=O)CNC(=O)[C@H](CCC(=O)O)NC(=O)C(C)(C)NC(=O)[C@@H](N)Cc1c[nH]cn1)[C@@H](C)O)[C@@H](C)O)C(C)C)C(=O)N[C@@H](C)C(=O)N[C@@H](Cc1c[nH]c2ccccc12)C(=O)N[C@@H](CC(C)C)C(=O)N[C@H](C(=O)N[C@@H](CCCNC(=N)N)C(=O)NCC(=O)O)C(C)C` [Example 40, N-epsilon26-[2-(2-{2-[(S)-4-Carboxy-4-((S)-4-carboxy-4-{6-[4-(16-(1H-tetrazol-5-yl)hexadecanoylsulfamoyl)butyrylamino]hexanoylamino}butyrylamino)butyrylamino]ethoxy}ethoxy)acetyl][Aib8,Arg34]GLP-1-(7-35)], the EC50 at 20 h [1] was 150 to 300 nM.
Work on `CC[C@H](C)[C@H](NC(=O)[C@H](Cc1ccccc1)NC(=O)[C@H](CCC(=O)O)NC(=O)[C@H](CCCCNC(=O)COCCOCCNC(=O)CC[C@H](NC(=O)CC[C@H](NC(=O)CCCCCCCCCCCNC(=O)CCCS(=O)(=O)NC(=O)CCCCCCCCCCCCCCCc1nnn[nH]1)C(=O)O)C(=O)O)NC(=O)[C@H](C)NC(=O)[C@H](C)NC(=O)[C@H](CCC(N)=O)NC(=O)CNC(=O)[C@H](CCC(=O)O)NC(=O)[C@H](CC(C)C)NC(=O)[C@H](Cc1ccc(O)cc1)NC(=O)[C@H](CO)NC(=O)[C@H](CO)NC(=O)[C@@H](NC(=O)[C@H](CC(=O)O)NC(=O)[C@H](CO)NC(=O)[C@@H](NC(=O)[C@H](Cc1ccccc1)NC(=O)[C@@H](NC(=O)CNC(=O)[C@H](CCC(=O)O)NC(=O)C(C)(C)NC(=O)[C@@H](N)Cc1c[nH]cn1)[C@@H](C)O)[C@@H](C)O)C(C)C)C(=O)N[C@@H](C)C(=O)N[C@@H](Cc1c[nH]c2ccccc12)C(=O)N[C@@H](CC(C)C)C(=O)N[C@@H](CCCCN)C(=O)NCC(=O)O` [Example 43, N-epsilon26-[2-(2-{2-[(S)-4-Carboxy-4-((S)-4-carboxy-4-{12-[4-(16-(1H-tetrazol-5-yl)hexadecanoylsulfamoyl)butyrylamino]dodecanoylamino}butyrylamino)butyrylamino]ethoxy}ethoxy)acetyl][Aib8,Lys33,Arg34]GLP-1-(7-34)] yielded an EC50 [1] of 1 to 100 nM.
For `CC[C@H](C)[C@H](NC(=O)[C@H](Cc1ccccc1)NC(=O)[C@H](CCC(=O)O)NC(=O)[C@H](CCCCNC(=O)COCCOCCNC(=O)CC[C@H](NC(=O)CC[C@H](NC(=O)CCCCCCCCCCCNC(=O)CCCS(=O)(=O)NC(=O)CCCCCCCCCCCCCCCc1nnn[nH]1)C(=O)O)C(=O)O)NC(=O)[C@H](C)NC(=O)[C@H](C)NC(=O)[C@H](CCC(N)=O)NC(=O)CNC(=O)[C@H](CCC(=O)O)NC(=O)[C@H](CC(C)C)NC(=O)[C@H](Cc1ccc(O)cc1)NC(=O)[C@H](CO)NC(=O)[C@H](CO)NC(=O)[C@@H](NC(=O)[C@H](CC(=O)O)NC(=O)[C@H](CO)NC(=O)[C@@H](NC(=O)[C@H](Cc1ccccc1)NC(=O)[C@@H](NC(=O)CNC(=O)[C@H](CCC(=O)O)NC(=O)C(C)(C)NC(=O)[C@@H](N)Cc1c[nH]cn1)[C@@H](C)O)[C@@H](C)O)C(C)C)C(=O)N[C@@H](C)C(=O)N[C@@H](Cc1c[nH]c2ccccc12)C(=O)N[C@@H](CC(C)C)C(=O)N[C@H](C(=O)N[C@@H](CCCNC(=N)N)C(=O)NCC(=O)O)C(C)C` [Example 39, N-epsilon26-[2-(2-{2-[(S)-4-Carboxy-4-((S)-4-carboxy-4-{12-[4-(16-(1H-tetrazol-5-yl)hexadecanoylsulfamoyl)butyrylamino]dodecanoylamino}butyrylamino)butyrylamino]ethoxy}ethoxy)acetyl][Aib8,Arg34]GLP-1-(7-35)], the EC50 at 20 h [1] was 1 to 100 nM.
For `CC[C@H](C)[C@H](NC(=O)[C@H](Cc1ccccc1)NC(=O)[C@H](CCC(=O)O)NC(=O)[C@H](CCCCNC(=O)COCCOCCNC(=O)CC[C@H](NC(=O)CC[C@H](NC(=O)CCCCCCCCCCCNC(=O)CCCS(=O)(=O)NC(=O)CCCCCCCCCCCCCCCc1nnn[nH]1)C(=O)O)C(=O)O)NC(=O)[C@H](C)NC(=O)[C@H](C)NC(=O)[C@H](CCC(N)=O)NC(=O)CNC(=O)[C@H](CCC(=O)O)NC(=O)[C@H](CC(C)C)NC(=O)[C@H](Cc1ccc(O)cc1)NC(=O)[C@H](CO)NC(=O)[C@H](CO)NC(=O)[C@@H](NC(=O)[C@H](CC(=O)O)NC(=O)[C@H](CO)NC(=O)[C@@H](NC(=O)[C@H](Cc1ccccc1)NC(=O)[C@@H](NC(=O)CNC(=O)[C@H](CCC(=O)O)NC(=O)C(C)(C)NC(=O)[C@@H](N)Cc1c[nH]cn1)[C@@H](C)O)[C@@H](C)O)C(C)C)C(=O)N[C@@H](C)C(=O)N[C@@H](Cc1c[nH]c2ccccc12)C(=O)N[C@@H](CC(C)C)C(=O)N[C@H](C(=O)N[C@@H](CCCNC(=N)N)C(=O)NCC(=O)N[C@@H](CCCNC(=N)N)C(N)=O)C(C)C` [Example 44, N-epsilon26-[2-(2-{2-[(S)-4-Carboxy-4-((S)-4-carboxy-4-{12-[4-(16-(1H-tetrazol-5-yl)hexadecanoylsulfamoyl)butyrylamino]dodecanoylamino}butyrylamino)butyrylamino]ethoxy}ethoxy)acetyl][Aib8,Arg34]GLP-1-(7-36)amide], the EC50 [2] was 1 to 100 nM.
With `CC[C@H](C)[C@H](NC(=O)[C@H](Cc1ccccc1)NC(=O)[C@H](CCC(=O)O)NC(=O)[C@H](CCCNC(=N)N)NC(=O)[C@H](C)NC(=O)[C@H](C)NC(=O)[C@H](CCC(N)=O)NC(=O)CNC(=O)[C@H](CCC(=O)O)NC(=O)[C@H](CC(C)C)NC(=O)[C@H](Cc1ccc(O)cc1)NC(=O)[C@H](CO)NC(=O)[C@H](CO)NC(=O)[C@@H](NC(=O)[C@H](CC(=O)O)NC(=O)[C@H](CO)NC(=O)[C@@H](NC(=O)[C@H](Cc1ccccc1)NC(=O)[C@@H](NC(=O)CNC(=O)[C@H](CCC(=O)O)NC(=O)[C@H](C)NC(=O)CCc1c[nH]cn1)[C@@H](C)O)[C@@H](C)O)C(C)C)C(=O)N[C@@H](C)C(=O)N[C@@H](Cc1c[nH]c2ccccc12)C(=O)N[C@@H](CC(C)C)C(=O)N[C@H](C(=O)N[C@@H](CCCNC(=N)N)C(=O)NCC(=O)N[C@@H](CCCNC(=N)N)C(=O)NCC(=O)N[C@@H](CCCCNC(=O)COCCOCCNC(=O)COCCOCCNC(=O)CC[C@H](NC(=O)C1CCN(C(=O)CCCCCCCCCCCCCCCCCCC(=O)O)CC1)C(=O)O)C(=O)O)C(C)C` [Example 59, [DesaminoHis7,Arg26,34]-GLP-1 (7-37)-Lys(2-{2-[2-(2-{2-[2-((S)-4-Carboxy-4-{[1-(19-carboxynonadecanoyl)piperidine-4-carbonyl]amino}butyrylamino)ethoxy]ethoxy}acetylamino)ethoxy]ethoxy}acetyl) peptide] the EC50 [2] was > 2000 nM.
